# Counter-ions that a name gives are not always drawn.
# Legend:
# [1] = Effect on contraction force of the heart, guinea pig papillary muscle (negative inotropy); format: cell-based, Meerschweinchen; conditions: concentration that reduces the contraction of the papillary muscle by 20 %, read-out: C20_CF
# Description: Die Wirkung auf die Kontraktionskraft des Herzens wurde am Meerschweinchenpapillarmuskel untersucht. Hämodynamische Studien wurden bei gesunden, wie auch akut infarzierten Hunden durchgeführt.
# [2] = tested on: Purkinje-Fasern aus Hundeherzen; test: Electrophysiological study on Purkinje fibres from dog hearts (Vmax, conduction delay); format: cell-based, Hunde; conditions: Canis lupus familiaris, read-out: C20_Vmax
# Description: Die antiarrhythmische Wirksamkeit der erfindungsgemäßen Verbindungen wurde sowohl anhand von elektrophysiologischen Studien an Purkinje-Fasern aus Hundeherzen sowie mit Hilfe von Ouabain-induzierten ventrikulären Tachykardien bei Hunden bestimmt. […]
# Als zusätzliches Kriterium wurde der Vorzeitigkeitsindex (Prematurity-Faktor) bestimmt, der die erwünschte Wirksamkeit der erfindungsgemäßen Verbindungen bei frühzeitig einfallenden Extrasystolen charakterisiert.
IC20 [1] [µM],SMILES,IC20 [2] [µM]
15,"CCCNCC(O)COc1ccccc1CCC(=O)c1ccc(OC)c(OC)c1 (stereo not drawn) [Beispiel 1, 1-(3,4-Dimethoxyphenyl)-3-[2ʹ-(2-hydroxy-3-n-propylamino-propoxy)-phenyl]-1-propanon-hydrochlorid]",12.5
22,"COc1ccc(C(=O)CCc2ccccc2OCC(O)CNC(C)C)cc1OC (stereo not drawn) [Beispiel 4, 1-(3,4-Dimethoxyphenyl)-3-[2ʹ-(2-hydroxy-3-isopropylamino-propoxy)-phenyl]-1-propanon-hydrochlorid]",4.8
12,"COc1ccc(C(=O)CCc2ccccc2OCC(O)CNC(C)(C)C)cc1OC (stereo not drawn) [Beispiel 5, 1-(3,4-Dimethoxyphenyl)-3-[2ʹ-(2-hydroxy-3-tert.-butylamino-propoxy)-phenyl]-1-propanon-hydrochlorid]",4.4
20,"COc1ccc(C(=O)CCc2ccccc2OCC(O)CN2CCCCC2)cc1OC (stereo not drawn) [Beispiel 6, 1-(3,4-Dimethoxyphenyl)-3-[2ʹ-(2-hydroxy-3-piperidino-propoxy)-phenyl]-1-propanon-hydrochlorid]",11.3
18,"COc1ccc(C(=O)CCc2ccccc2OCC(O)CNCC(C)O)cc1OC (stereo not drawn) [Beispiel 7, 1-(3,4-Dimethoxyphenyl)-3-[2ʹ-(2-hydroxy-3-(2ʺ-hydroxypropylamino)-propoxy)-phenyl]-1-propanon-hydrochlorid]",5.7
13,"COc1ccc(C(=O)CCc2ccccc2OCC(O)CNCCO)cc1OC (stereo not drawn) [Beispiel 8, 1-(3,4-Dimethoxyphenyl)-3-[2ʹ-(2-hydroxy-3-(2ʺ-hydroxyethylamino)-propoxy)-phenyl]-1-propanon-hydrochlorid]",8.3
2,"O=C(CCc1ccccc1OCC(O)CN1CCCCC1)c1ccccc1 (stereo not drawn) [Beispiel 47, 1-Phenyl-3-[2ʹ-(2-hydroxy-3-piperidino-propoxy)-phenyl]-1-propanon-hydrochlorid]",0.3

# Further lines, the compound ahead of its results:
SMILES,IC20 [1] [µM],IC20 [2] [µM]
"CCC(C)(C)NCC(O)COc1ccccc1CCC(=O)c1ccc(OC)c(OC)c1 (stereo not drawn) [Beispiel 2, 1-(3,4-Dimethoxyphenyl)-3-[2ʹ-(2-hydroxy-3-tert.-pentylamino-propoxy)-phenyl]-1-propanon-hydrochlorid]",8,3.6
"CCC(CO)NCC(O)COc1ccccc1CCC(=O)c1ccc(OC)c(OC)c1 (stereo not drawn) [Beispiel 9, 1-(3,4-Dimethoxyphenyl)-3-[2ʹ-(2-hydroxy-3-(1ʺ-hydroxybut-2-ylamino)-propoxy)-phenyl]-1-propanon-oxalat]",25,10.2
"COc1cc(C(=O)CCc2ccccc2OCC(O)CNC(C)C)cc(OC)c1OC (stereo not drawn) [Beispiel 12, 1-(3,4,5-Trimethoxyphenyl)-3-[2ʹ-(2-hydroxy-3-isopropylamino-propoxy)-phenyl]-1-propanon-hydrochlorid]",18,5.8
"COc1cc(C(=O)CCc2ccccc2OCC(O)CNC2CCCCC2)cc(OC)c1OC (stereo not drawn) [Beispiel 16, 1-(3,4,5-Trimethoxyphenyl)-3-[2ʹ-(2-hydroxy-3-cyclohexylamino-propoxy)-phenyl]-1-propanon-hydrochlorid]",9,11.9
"COc1cccc(C(=O)CCc2ccccc2OCC(O)CNC(C)C)c1 (stereo not drawn) [Beispiel 24, 1-(3-Methoxyphenyl)-3-[2ʹ-(2-hydroxy-3-isopropylamino-propoxy)-phenyl]-1-propanon-hydrochlorid]",10,1.6
"CCCNCC(O)COc1ccccc1CCC(=O)c1cccc(OC)c1 (stereo not drawn) [Beispiel 26, 1-(3-Methoxyphenyl)-3-[2ʹ-(2-hydroxy-3-n-propylamino-propoxy)-phenyl]-1-propanon-hydrochlorid]",3,1.7
"COc1cccc(C(=O)CCc2ccccc2OCC(O)CNC(C)(C)C)c1 (stereo not drawn) [Beispiel 27, 1-(3-Methoxyphenyl)-3-[2ʹ-(2-hydroxy-3-tert.-butylamino-propoxy)-phenyl]-1-propanon-hydrochlorid]",4,1.6
"COc1ccccc1C(=O)CCc1ccccc1OCC(O)CNC(C)(C)C (stereo not drawn) [Beispiel 38, 1-(2-Methoxyphenyl)-3-[2ʹ-(2-hydroxy-3-tert.-butylamino-propoxy)-phenyl]-1-propanon-hydrochlorid]",7,1.7
"Cc1ccc(C(=O)CCc2ccccc2OCC(O)CNC(C)(C)C)cc1 (stereo not drawn) [Beispiel 44, 1-(4-Methylphenyl)-3-[2ʹ-(2-hydroxy-3-tert.-butylamino-propoxy)-phenyl]-1-propanon-hydrochlorid]",6,2.6
"O=C(CCc1ccccc1OCC(O)CNC1CCCCC1)c1ccccc1 (stereo not drawn) [Beispiel 46, 1-Phenyl-3-[2ʹ-(2-hydroxy-3-cyclohexylamino-propoxy)-phenyl]-1-propanon-hydrochlorid]",2,2.2
"CC(C)(C)NCC(O)COc1ccccc1CCC(=O)c1ccccc1 (stereo not drawn) [Beispiel 48, 1-Phenyl-3-[2ʹ-(2-hydroxy-3-tert.-butylamino-propoxy)-phenyl]-1-propanon-hydrochlorid]",3,1
